The test system of one experiment is MDA-MB-231 cells. The experiment is described as follows: MTS colorimetric survival assay. The format is cell-based, human. As to conditions: agent alone, 72 h, read-out: IC50, inhibition of growth / survival. As to the method: FIG. 19A-E. Combination of cisplatin and mdivi-1 produces synergistic pro-apoptotic effect in multidrug resistant tumor cells. (A) MDA-MB-231 cells were treated with increasing doses of mdivi-1 for 72 h. The survival was assessed by MTS assay. […] (B) MDA-MB-231 cells were treated with increasing doses of cisplatin alone or the combination with 20 μM or 50 μM of mdivi-1 for 72 h. The survival was assessed by MTS assay. (C) MDA-MB-231 cells were exposed to cisplatin and mdivi-1 alone or combination at their IC50 or 0.5 fold of their IC50. The combination index (CI) and the normalized isobologram were generated using CompuSyn. […] The compounds were then washed out and the cell number was determined every 24 h by CyQuant assay. […] The number of apoptotic cells was determined with antibody recognizing cleaved caspase-3 followed by flow cytometry.
Cell proliferation was determined using a CyQUANT Direct Cell Proliferation Assay kit (Invitrogen), the activity of caspase-3/7 was measured using a Caspase-Glo 3/7 Assay Systems (Promega, Madison, Wis.), and the MTS colorimetric survival assay was performed using the CellTiter 96 AQueous One Solution Cell Proliferation Assay kit (Promega, Madison, Wis.), according to the manufacturer's instructions. The survival fractions were calculated after setting untreated control cells at 100%. […]

In experiment [1] the test system is Drp1 wild-type (WT) and knockout (KO) SV40-transformed MEF cells. The experiment is described as follows: Drp1 wild-type and knockout MEF cells: cleaved caspase-3, CyQuant, OCR. The class given is cell-based, mouse. As to the method:
FIG. 21A-F. Mdivi-1 enhances cisplatin sensitivity through Drp1-independent mechanisms. (A) Confirmation of the depletion of Drp1 in Drp1 knockout SV40-transformed MEF cells by western blot. (B) Drp1 wild-type (Drp1+/+) and knockout (Drp1−/−) MEF cells were treated as indicated for 20 h, and the number of apoptotic cells was determined by antibody recognizing cleaved caspase-3. […] (C) Drp1 wild-type and knockout MEF cells were treated with mdivi-1 for 24 h, and the cell number were determined by CyQuant assay. (D) OCR was measured after 1 h treatment of Drp1 wild-type and knockout MEF cells with DMSO or mdivi-1. (E) The combination effect of cisplatin with four analogs of mdivi-1. […]
Cell proliferation was determined using a CyQUANT Direct Cell Proliferation Assay kit (Invitrogen), the activity of caspase-3/7 was measured using a Caspase-Glo 3/7 Assay Systems (Promega, Madison, Wis.), and the MTS colorimetric survival assay was performed using the CellTiter 96 AQueous One Solution Cell Proliferation Assay kit (Promega, Madison, Wis.), according to the manufacturer's instructions. The survival fractions were calculated after setting untreated control cells at 100%. […] The cytotoxic interactions between the two drugs was determined using the method of Chou and Talalay. The combination index (CI) was determined using a computer program CompuSyn. […]

In experiment [2] the test system is primary epithelial ovarian cancer (EOC) cells. Kind of experiment: Ex vivo drug sensitivity assay on primary cells from ovarian cancer patient ascites. The class given is cell-based, human. As to conditions: MTS 72 h. The protocol:
FIG. 20A-C. The combination of cisplatin and mdivi-1 efficiently overcomes acquired cisplatin resistance in human ovarian cancer cells, including those from endstage cisplatin- and treatment-refractory patient. (A) The comparison of cisplatin sensitivity in ovarian cancer cells A2780 and their derivative cisplatin-resistant A2780cis cells (left panel). A2780cis cells were treated with cisplatin alone or in combination with mdivi-1 for 72 h (right panel). The survival was determined by MTS assay. (B and C) Ex vivo drug sensitivity assay using primary EOC cells isolated from ascites fluid of ovarian cancer patients (B, treatment-naïve; C, cisplatin-resistant). Apoptosis was measured by caspase-3/7 activity assay after 20 h exposure and the survival was measured by MTS assay after 72 h exposure. […]
Cell proliferation was determined using a CyQUANT Direct Cell Proliferation Assay kit (Invitrogen), the activity of caspase-3/7 was measured using a Caspase-Glo 3/7 Assay Systems (Promega, Madison, Wis.), and the MTS colorimetric survival assay was performed using the CellTiter 96 AQueous One Solution Cell Proliferation Assay kit (Promega, Madison, Wis.), according to the manufacturer's instructions. The survival fractions were calculated after setting untreated control cells at 100%. […] The cytotoxic interactions between the two drugs was determined using the method of Chou and Talalay. […]

Structures are written as SMILES.

Consider `COc1cc(-n2c(=S)[nH]c3ccccc3c2=O)c(Cl)cc1Cl` [mdivi-1], for which the IC50 with MDA-MB-231 cells amounted to 55.9 ± 1.92 µM. Besides, in experiment [1] (1 h treatment), the “mitochondrial respiration (OCR) in Drp1 WT and KO cells” value is on record as “inhibition”. In addition, the “cell proliferation (CyQuant) in Drp1 WT and KO cells” value in experiment [1] (24 h) was “inhibition of cell proliferation”.

Take `N.N.[Cl][Pt][Cl]` [cisplatin]: the IC50 in experiment [2] (EOC cells of a patient not treated with cisplatin (treatment-naïve)) was about 7.97 µM; in experiment [2] (EOC cells of a patient with clinically-defined cisplatin resistance), about 11.6 µM.

These data come from patent US9492450B2, “Inhibition of dynamin related protein 1 to promote cell death” (University of Pittsburgh—of the Commonwealth System of …, priority 2011, dated 2016).
